The subject of the assay is CD2F1 mice, L1210 leukemia ip, survival T/C. Kind of assay: NCI In Vivo Anticancer Drug Screen. Data for tumor model L1210 Leukemia (intraperitoneal) in CD2F1 (CDF1) mice. Particulars: higher = longer survival. In a few lines:
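Ratio T/C, where T is the treated-group value and C the vehicle-dosed control value, from mice implanted with a transplantable tumor.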

[1] abbreviates: endpoint: mean survival time, dose: 100.0 mg/kg/injection, schedule: Q01DX001 (ip), vehicle: saline with Tween-80.
Setting [2] is: endpoint: mean survival time, dose: 200.0 mg/kg/injection, schedule: Q01DX001 (ip), vehicle: saline with Tween-80.
Setting [3] is: endpoint: mean survival time, dose: 100.0 mg/kg/injection, schedule: Q01DX009 (ip), vehicle: saline with Tween-80.
Where [4] appears, read: endpoint: mean survival time, dose: 200.0 mg/kg/injection, schedule: Q01DX009 (ip), vehicle: saline with Tween-80.
Where [5] appears, read: endpoint: mean survival time, dose: 400.0 mg/kg/injection, schedule: Q01DX009 (ip), vehicle: saline with Tween-80.
[6] abbreviates: endpoint: mean survival time, dose: 100.0 mg/kg/injection, schedule: Q04DX003 (ip), vehicle: saline with Tween-80.
[7] abbreviates: endpoint: mean survival time, dose: 200.0 mg/kg/injection, schedule: Q04DX003 (ip), vehicle: saline with Tween-80.
The mark [8] stands for this setting: endpoint: mean survival time, dose: 400.0 mg/kg/injection, schedule: Q04DX003 (ip), vehicle: saline with Tween-80.
[9] abbreviates: endpoint: mean survival time, dose: 100.0 mg/kg/injection, schedule: Q01DX001 (ip), vehicle: other.
The mark [10] stands for this setting: endpoint: mean survival time, dose: 200.0 mg/kg/injection, schedule: Q01DX001 (ip), vehicle: other.
Setting [11] is: endpoint: mean survival time, dose: 50.0 mg/kg/injection, schedule: Q01DX009 (ip), vehicle: saline with Tween-80.
Where [12] appears, read: endpoint: mean survival time, dose: 50.0 mg/kg/injection, schedule: Q01DX009 (ip), vehicle: Klucel (hydroxypropylcellulose) (HPC).
[13] abbreviates: endpoint: mean survival time, dose: 100.0 mg/kg/injection, schedule: Q01DX009 (ip), vehicle: Klucel (hydroxypropylcellulose) (HPC).
[14] abbreviates: endpoint: mean survival time, dose: 200.0 mg/kg/injection, schedule: Q01DX009 (ip), vehicle: Klucel (hydroxypropylcellulose) (HPC).

Structures are written as SMILES. Several values for one entry are separate records, joined by “and”; a condition that tells them apart may be missing. Equal entries are not always repeated. Toxic doses and inconclusive results are not listed.

For `CC[C@@]1(OP(=O)(O)O)C(=O)OCc2c1cc1n(c2=O)Cc2cc3ccccc3nc2-1`, the T/C was 111 % of control and 112 % of control (endpoint: median survival time, dose: 5.5 mg/kg/injection, schedule: Q04DX002 (ip), vehicle: water); 154 % of control (endpoint: median survival time, dose: 8.25 mg/kg/injection, schedule: Q04HX004 (iv), vehicle: water); 119 % of control and 104 % of control (endpoint: median survival time, dose: 11.0 mg/kg/injection, schedule: Q04DX002 (ip), vehicle: water); 158 % of control and 180 % of control (endpoint: median survival time, dose: 16.5 mg/kg/injection, schedule: Q04HX004 (iv), vehicle: water); 177 % of control and 221 % of control (endpoint: median survival time, dose: 33.0 mg/kg/injection, schedule: Q04HX004 (iv), vehicle: water); 158 % of control and 192 % of control (endpoint: median survival time, dose: 44.0 mg/kg/injection, schedule: Q04DX002 (ip), vehicle: water). Moreover, the T/C (endpoint: median survival time, dose: 44.0 mg/kg/injection, schedule: Q04HX004 (iv), vehicle: water) is 207 % of control.
Turning to `O=C(OCC(F)(F)F)C(Cl)(Cl)Cl`, the T/C was 97 % of control (endpoint: mean survival time, dose: 75.0 mg/kg/injection, schedule: Q01DX001 (ip), vehicle: saline); 107 % of control (endpoint: mean survival time, dose: 150.0 mg/kg/injection, schedule: Q01DX001 (ip), vehicle: saline); 107 % of control (endpoint: mean survival time, dose: 300.0 mg/kg/injection, schedule: Q01DX001 (ip), vehicle: saline).
With `COc1cc([N+](=O)[O-])ccc1P(=O)(O)O`, the T/C runs as follows: (endpoint: mean survival time, dose: 50.0 mg/kg/injection, schedule: Q04DX003 (ip), vehicle: saline) 101 % of control; (endpoint: mean survival time, dose: 100.0 mg/kg/injection, schedule: Q04DX003 (ip), vehicle: saline) 97 % of control; (endpoint: mean survival time, dose: 200.0 mg/kg/injection, schedule: Q04DX003 (ip), vehicle: saline) 91 % of control.
Take `CCN(CC)Cc1cc(Nc2ncnc3[nH]c(C)c(C)c23)ccc1O`: the T/C (endpoint: mean survival time, dose: 50.0 mg/kg/injection, schedule: Q04DX002 (ip), vehicle: saline with Tween-80) is 89 % of control; the T/C under setting [1] was 97 % of control; the T/C under setting [2] is 100 % of control; the T/C (endpoint: mean survival time, dose: 200.0 mg/kg/injection, schedule: Q04DX002 (ip), vehicle: saline with Tween-80) was 92 % of control.
Regarding `Cc1c(Cl)c(C)c(Cl)c(O)c1Cl`, the T/C was 96 % of control under setting [3], 100 % of control under setting [4] and 87 % of control under setting [5].
As to `CCCCOB=O`, the T/C under setting [6] is 96 % of control, the T/C under setting [7] was 98 % of control and the T/C under setting [8] is 95 % of control.
Take `NC1CCCCC1N.O=C([O-])c1ccc(N=Nc2cccc([N+](=O)[O-])c2)cc1[O-].[Pt+4]`: the T/C is 105 % of control and 109 % of control (endpoint: median survival time, dose: 3.12 mg/kg/injection, schedule: Q04DX003 (ip), vehicle: saline with Tween-80); 102 % of control and 110 % of control (endpoint: median survival time, dose: 6.25 mg/kg/injection, schedule: Q04DX003 (ip), vehicle: saline with Tween-80); 113 % of control (endpoint: median survival time, dose: 12.5 mg/kg/injection, schedule: Q04DX003 (ip), vehicle: saline with Tween-80); 116 % of control and 123 % of control (endpoint: median survival time, dose: 25.0 mg/kg/injection, schedule: Q04DX003 (ip), vehicle: saline with Tween-80); 123 % of control (endpoint: median survival time, dose: 50.0 mg/kg/injection, schedule: Q04DX003 (ip), vehicle: saline with Tween-80); 156 % of control (endpoint: median survival time, dose: 100.0 mg/kg/injection, schedule: Q04DX003 (ip), vehicle: saline with Tween-80). Further, the T/C (endpoint: median survival time, dose: 200.0 mg/kg/injection, schedule: Q04DX003 (ip), vehicle: saline with Tween-80) is 166 % of control and 313 % of control.
For the compound `N#CCSc1nc(N)nc2nc[nH]c12`, the T/C was 103 % of control under setting [3]; 102 % of control (endpoint: mean survival time, dose: 100.0 mg/kg/injection, schedule: Q04DX003 (ip), vehicle: saline sonified); 116 % of control under setting [4]; 105 % of control (endpoint: mean survival time, dose: 200.0 mg/kg/injection, schedule: Q04DX003 (ip), vehicle: saline sonified); 107 % of control (endpoint: mean survival time, dose: 400.0 mg/kg/injection, schedule: Q04DX003 (ip), vehicle: saline sonified).
Turning to `CCOC/C(O)=C(\C#N)c1cccc(Cl)c1`, the T/C is 105 % of control (endpoint: mean survival time, dose: 25.0 mg/kg/injection, schedule: Q01DX001 (ip), vehicle: other); 102 % of control (endpoint: mean survival time, dose: 50.0 mg/kg/injection, schedule: Q01DX001 (ip), vehicle: other); 102 % of control under setting [9]; 101 % of control under setting [10].
Turning to `CCCCNC(=O)/C=C\C(=O)O`, the T/C is 97 % of control under setting [6], 100 % of control under setting [7] and 100 % of control under setting [8].
Regarding `Cc1ccc(C(OS(=O)(=O)c2ccc(C)cc2)C(F)(F)F)cc1` (stereo not drawn), the T/C runs as follows: under setting [1], 104 % of control; under setting [6], 107 % of control; under setting [2], 108 % of control; under setting [7], 101 % of control; (endpoint: mean survival time, dose: 400.0 mg/kg/injection, schedule: Q01DX001 (ip), vehicle: saline with Tween-80) 106 % of control; under setting [8], 98 % of control.
`Nc1ccc2[nH]c(=S)sc2c1`: the T/C is, setting by setting: under setting [6], 94 % of control; under setting [7], 92 % of control; under setting [8], 90 % of control.
Turning to `O=C(CNC(=O)Nc1cccc([N+](=O)[O-])c1)N/N=C/c1ccccc1O`, the T/C was 93 % of control under setting [11], 86 % of control under setting [3] and 89 % of control under setting [4].
For `[N-]=[N+]=NC1C(O)C(CO)OC1n1c(=O)[nH]c2c(N)ncnc21` (stereo not drawn), the T/C (endpoint: mean survival time, dose: 12.5 mg/kg/injection, schedule: Q01DX005 (ip), vehicle: water) is 94 % of control; the T/C (endpoint: mean survival time, dose: 25.0 mg/kg/injection, schedule: Q01DX005 (ip), vehicle: water) was 99 % of control; the T/C (endpoint: mean survival time, dose: 50.0 mg/kg/injection, schedule: Q01DX005 (ip), vehicle: water) is 97 % of control; the T/C (endpoint: mean survival time, dose: 100.0 mg/kg/injection, schedule: Q01DX005 (ip), vehicle: water) is 97 % of control; the T/C (endpoint: mean survival time, dose: 200.0 mg/kg/injection, schedule: Q01DX005 (ip), vehicle: water) was 97 % of control.
Regarding `CC(O)(c1ccc(Cl)cc1)c1ccc(Cl)cc1`, the T/C by setting is: under setting [6], 106 % of control; under setting [7], 101 % of control; under setting [8], 90 % of control.
In the case of `Cc1ccc([N+](=O)[O-])cc1NC(=O)Nc1cc([N+](=O)[O-])ccc1F`, the T/C was 112 % of control under setting [12], 101 % of control under setting [13] and 101 % of control under setting [14].
Regarding `O=S(=O)(c1ccccc1)C(Cl)Cl`, the T/C was 95 % of control (endpoint: mean survival time, dose: 100.0 mg/kg/injection, schedule: Q04DX003 (ip), vehicle: other); 100 % of control (endpoint: mean survival time, dose: 200.0 mg/kg/injection, schedule: Q04DX003 (ip), vehicle: other); 100 % of control (endpoint: mean survival time, dose: 400.0 mg/kg/injection, schedule: Q04DX003 (ip), vehicle: other).
`Nc1nc(N)c(-c2ccc(Cl)cc2)c(CNc2cccc([N+](=O)[O-])c2)n1`: the T/C is 95 % of control under setting [9]; 94 % of control under setting [10]; 90 % of control (endpoint: mean survival time, dose: 400.0 mg/kg/injection, schedule: Q01DX001 (ip), vehicle: other).
Regarding `O=C1CCc2cccc3cccc(c23)N1`, the T/C by setting is: under setting [6], 98 % of control; under setting [7], 98 % of control; under setting [8], 90 % of control.
On to `Clc1ccc2ccccc2c1C(Cl)Cl`, for which the T/C was 96 % of control (endpoint: mean survival time, dose: 25.0 mg/kg/injection, schedule: Q01DX009 (ip), vehicle: saline with Tween-80); 95 % of control under setting [11]; 98 % of control under setting [3]; 91 % of control under setting [6]; 102 % of control under setting [4]; 98 % of control under setting [7]. For the same compound, the T/C by setting is: under setting [5], 102 % of control; under setting [8], 93 % of control.
`O=C(Nc1ccc(C(=O)O)cc1)Nc1ccc(F)c(Cl)c1`: the T/C by setting is: under setting [12], 109 % of control; under setting [13], 102 % of control; (endpoint: mean survival time, dose: 100.0 mg/kg/injection, schedule: Q04DX003 (ip), vehicle: Klucel (hydroxypropylcellulose) (HPC)) 104 % of control; under setting [14], 95 % of control; (endpoint: mean survival time, dose: 200.0 mg/kg/injection, schedule: Q04DX003 (ip), vehicle: Klucel (hydroxypropylcellulose) (HPC)) 104 % of control.
Turning to `Nc1ccccc1Sc1ccncc1[N+](=O)[O-]`, the T/C was 96 % of control under setting [3]; 90 % of control under setting [6]; 100 % of control under setting [4]; 95 % of control under setting [7]; 101 % of control under setting [5]; 97 % of control under setting [8].
